Data: US20230190697A1, “METHODS FOR TREATING VIRAL INFECTIONS WITH NAFAMOSTAT” (priority 2020, published 2023)
Values joined by “and” are separate entries in the source; they are usually repeats but may differ in a detail not shown here. Equal entries are not always repeated. “Also recorded” adds a separate entry of the source. Where two headings read alike, the source gives them in different places.

Experiments:
[1] = system: S. typhimurium strains TA98, TA100, TA1535, and TA97a and Escherichia coli strain WP2uvrA76; assay: Bacterial Reverse Mutation (Ames) Screening Assay; format: cell-based; conditions: with or without S9, up to 25 mg/mL
Experimental: Bacterial Reverse Mutation (Ames) Screening Assay: This in vitro non-GLP study evaluated the cytotoxic and mutagenic activity of nafamostat in S. typhimurium strains TA98, TA100, TA1535, and TA97a and in the Escherichia coli (E. coli) strain WP2uvrA76. Two independent assays were conducted using the plate incorporation method with and without S9 metabolic activation. The highest concentration tested was 25 mg/mL. The vehicle control, sterile saline, was tested under the same conditions.

[2] = system: healthy male and female subjects; assay: Safety and tolerability (adverse events) of oral nafamostat mesylate in healthy subjects; format: in vivo, human
Experimental: (§1) Part 1: Single Ascending Dose Study. Male and female subjects aged 18 - 70 were administered a single dose of 50 mg nafamostat mesylate on day 1, 100 mg nafamostat mesylate on day 3 or 4, and 200 mg nafamostat mesylate on day 5, 6, or 7. Nafamostat mesylate was administered in the form of an oral solution. Blood samples were obtained at pre-dose (0 hr.) and at 0.5, 1, 2, 3, 4, 6, 8, 12, and 24 hours after receiving the nafamostat mesylate oral solution.
Part 2: Multiple Ascending Dose Study. Subjects were divided into 2 cohorts. Cohort 1 received an oral solution of 100 mg/mL nafamostat mesylate twice a day for 5 days with pharmacokinetic evaluations on each day. Blood samples were obtained at pre-dose (0 hr.) and at 0.5, 1, 2, 3, 4, 6, 8, 12, and 24 hours after receiving the nafamostat mesylate oral solution as well as after the first dose on Day 5. Safety evaluations continued for 48 hours after the last dose. After review and evidence of safety, Cohort 2 received an oral solution of 200 mg/mL nafamostat mesylate twice a day for 5 days with pharmacokinetic evaluations on each day. Blood samples were obtained at pre-dose (0 hr.) and at 0.5, 1, 2, 3, 4, 6, 8, 12, and 24 hours after receiving the first dose of nafamostat mesylate oral solution as well as after the first dose on Day 5. Safety evaluations continued for 48 hours after the last dose.
(§2) Part 3: Single Fixed Dose Administered Twice Daily for 5 Days. Six subjects, different than the subjects from Parts 1 and 2, received an oral solution of 200 mg/mL nafamostat mesylate twice a day for 5 days. Blood samples were obtained at pre-dose (0 hr.) and at 0.5, 1, 2, 3, 4, 6, and 8 hours after the first dose on Day 1 and again after the first dose on Day 5.
Part 4: Single Ascending Dose Study. Three subjects were administered a single dose of an oral solution of 400 mg/mL nafamostat mesylate. After review and evidence of safety, a second set of three subjects received a single dose of an oral solution of 600 mg/mL nafamostat mesylate. Blood samples were obtained for pharmacokinetic analysis at pre-dose (0 hr.) and at 0.25, 0.5, 0.75, 1, 1.5, 2, 2.5, 3, 4, 6, and 8 hours after receiving the nafamostat mesylate dose.
Evaluations of subjects included incidence and severity of adverse events (AEs), vital signs (pulse rate, blood pressure, respiratory rate), 12-lead electrocardiogram, electrocardiogram telemetry or MCOT cardiac patch, continuous pulse oximetry, clinical laboratory tests (CBC-diff, complete metabolic panel including LFTs, PT, PTT), physical examination.

hERG K+ channel = hERG K+ channel (Homo sapiens, UniProt Q12809); assay: cell-based
Experimental: Effects of nafamostat in an hERG assay: In an in vitro non-GLP screening study, effects of nafamostat on the hERG K^+ channel currents were evaluated in voltage-clamped human embryonic kidney cells at room temperature. […] A full ICH-Compliant hERG study and in vivo cardiovascular safety pharmacology study is be performed as part of the IND-enabling program.

[3] = Pharmacokinetics of nafamostat in male rats (whole blood, LC/MS/MS); format: in vivo
Experimental: Example 1: Pharmacokinetic Studies. The pharmacokinetics of nafamostat were evaluated in male rats following an intravenous dose of 1 mg/kg or an oral dose of 9 mg/kg or 10 mg/kg. Nafamostat whole blood concentrations were determined by LC/MS/MS. Following intravenous dosing, nafamostat appeared in the blood of rats, with average (± SD) maximum whole blood concentrations (189 ± 54 ng/mL) being reached at the first measured time point (0.0830 hours) in all animals. […] The AUC0-t was 81.8 ± 29 ng̬·h/mL. The pharmacokinetic parameters were generated using a standard, non-compartmental model. Note that the half-life reported in this section is the terminal half-life and the alpha phase half-life is much shorter (estimated to be about 3 minutes).
After oral dosing, nafamostat appeared in the blood for the majority of the rats, with the whole blood concentrations being low and transient. The average (± SD) maximum plasma concentrations were 6.40 ± 6.2 ng/mL and 6.09 ± 3.6 ng/mL for the 9 mg/kg and 10 mg/kg doses, respectively, being reached between 0.250 hours and 0.500 hours. Due to the transient whole blood concentration-time profiles, the terminal t½ could not be calculated in the majority of the subjects but is approximated to be about 3 hours. The AUC0-t was 8.80 ng·h/mL (n=1) and 12.6 ± 11 ng·h/mL (n=3) for the two doses, respectively.

[4] = Pharmacokinetics of oral nafamostat mesylate solution in healthy male and female subjects; format: in vivo, human
Experimental: as §1, with “Blood samples were obtained at pre-dose (0 hr.) and at 0.5, 1, 2, 3, 4, 6, 8, 12, and 24 hours after receiving the nafamostat mesylate oral solution.” left out
Part 2: Multiple Ascending Dose Study. Subjects were divided into 2 cohorts. Cohort 1 received an oral solution of 100 mg/mL nafamostat mesylate twice a day for 5 days with pharmacokinetic evaluations on each day. […] Safety evaluations continued for 48 hours after the last dose. After review and evidence of safety, Cohort 2 received an oral solution of 200 mg/mL nafamostat mesylate twice a day for 5 days with pharmacokinetic evaluations on each day. […] Safety evaluations continued for 48 hours after the last dose.
as §2, with “5. […]” for “5.”
Oral solutions received by each subject were prepared by dissolving nafamostat mesylate in about 100 mL of EMETROL®/water and provided at a volume to deliver the indicated dosage. There was no placebo formulation.
Nafamostat pharmacokinetics was evaluated at the 200 mg dose levels.

[5] = human, oral, 200 mg dose levels

Chain of hERG K+ channel (Q12809 whole entry): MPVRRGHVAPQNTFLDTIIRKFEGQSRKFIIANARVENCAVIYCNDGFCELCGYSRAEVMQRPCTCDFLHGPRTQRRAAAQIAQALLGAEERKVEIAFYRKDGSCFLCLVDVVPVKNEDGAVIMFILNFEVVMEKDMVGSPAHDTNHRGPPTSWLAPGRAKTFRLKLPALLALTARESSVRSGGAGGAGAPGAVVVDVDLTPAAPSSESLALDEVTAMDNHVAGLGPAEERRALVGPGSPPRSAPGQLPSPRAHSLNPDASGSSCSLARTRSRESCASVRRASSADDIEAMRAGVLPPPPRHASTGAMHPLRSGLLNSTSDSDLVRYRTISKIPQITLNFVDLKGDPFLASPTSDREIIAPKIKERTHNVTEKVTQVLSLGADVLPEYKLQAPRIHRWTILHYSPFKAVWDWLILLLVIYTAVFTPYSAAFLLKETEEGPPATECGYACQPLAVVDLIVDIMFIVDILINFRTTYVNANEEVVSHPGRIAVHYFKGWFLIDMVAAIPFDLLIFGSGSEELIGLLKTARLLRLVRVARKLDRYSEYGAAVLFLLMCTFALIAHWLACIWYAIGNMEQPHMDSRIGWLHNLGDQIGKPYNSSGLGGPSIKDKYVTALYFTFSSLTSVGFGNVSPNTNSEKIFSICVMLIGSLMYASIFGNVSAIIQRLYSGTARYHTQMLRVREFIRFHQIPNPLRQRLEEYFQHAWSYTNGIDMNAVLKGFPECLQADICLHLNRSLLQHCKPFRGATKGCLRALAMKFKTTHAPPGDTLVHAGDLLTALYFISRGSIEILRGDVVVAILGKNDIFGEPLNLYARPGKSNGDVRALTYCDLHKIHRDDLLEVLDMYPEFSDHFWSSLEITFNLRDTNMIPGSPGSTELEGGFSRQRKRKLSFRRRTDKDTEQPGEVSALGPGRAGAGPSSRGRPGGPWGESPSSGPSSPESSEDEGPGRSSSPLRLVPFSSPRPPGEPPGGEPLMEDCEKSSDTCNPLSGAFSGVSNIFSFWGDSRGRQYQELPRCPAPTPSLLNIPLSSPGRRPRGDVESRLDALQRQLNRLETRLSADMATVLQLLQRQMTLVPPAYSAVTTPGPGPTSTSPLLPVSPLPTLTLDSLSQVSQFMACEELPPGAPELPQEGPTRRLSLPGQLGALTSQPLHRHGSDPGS

N=C(N)c1ccc2cc(OC(=O)c3ccc(N=C(N)N)cc3)ccc2c1 [nafamostat]
mutagenic activity (mean number of revertants per plate) ([1]; any test strain): no positive increases in the mean number of revertants | cytotoxic activity ([1]; plate incorporation): not cytotoxic | adverse events attributable to nafamostat ([2]; human subjects, oral solution): no adverse events that could be attributed to nafamostat reported | adverse events ([2]; oral, up to 600 mg nafamostat mesylate): no adverse events are observed | Drug-Related? ([2]; per subject (12-17), adverse event): No | Adverse Event ([2]; per subject (12-17), oral nafamostat mesylate solution): Intermittent headache; also recorded: Thrush; also recorded: Tonsillitis right; also recorded: Right thigh redness, swelling; also recorded: Nausea; also recorded: Orthostatic tachycardia* *; also recorded: Chest pain (mild, intermittent) | Severity ([2]; per subject (12-17), severity of adverse event): Mild (4×) and Moderate (3×) | IC50 (hERG K+ channel): > 50 µM | average (± SD) maximum whole blood concentration ([3]; male rats, intravenous 1 mg/kg): 189 ± 54 ng/mL | clearance ([3]; male rats, intravenous 1 mg/kg): high and greater than hepatic blood flow in rats | time of maximum whole blood concentration (first measured time point) ([3]; male rats, intravenous 1 mg/kg): 0.0830 h | average (± SD) maximum plasma concentration ([3]; male rats, oral 9 mg/kg): 6.40 ± 6.2 ng/mL | average (± SD) maximum plasma concentration ([3]; male rats, oral 10 mg/kg): 6.09 ± 3.6 ng/mL | half-life ([3]; male, rat, whole blood, iv, 1 mg/kg, male rats, intravenous 1 mg/kg, estimated, read-out: alpha phase half-life): ~0.05 h | half-life ([3]; male, rat, whole blood, iv, 1 mg/kg, male rats, intravenous 1 mg/kg, non-compartmental, read-out: terminal t½ (converted)): 1.84 ± 1.3 h | half-life ([3]; male, rat, whole blood, po, male rats, oral dosing, approximated, read-out: terminal t½ (converted)): ~3 h | bioavailability ([3]; male, rat, whole blood, rats, oral vs intravenous, read-out: overall absolute oral bioavailability): 1.16 ± 1.1% | AUC(0-t) ([3]; rat, whole blood, male rats, intravenous 1 mg/kg): 81.8 ± 29 ng·h/mL | AUC(0-t) ([3]; rat, whole blood, male rats, oral 9 mg/kg (n=1)): 8.8 ng·h/mL | AUC(0-t) ([3]; rat, whole blood, male rats, oral 10 mg/kg (n=3)): 12.6 ± 11 ng·h/mL | PK measurements (nafamostat concentration), all except three samples, below LLQ [4, 5]: < 0.1 ng/mL | nafamostat found in the two outlier samples taken after at least one daily dose [4, 5]: 0.125 ng/mL and 0.101 ng/mL | nafamostat detected in blood samples ([4]; oral administration): No nafamostat was detected in blood samples | therapeutically-relevant blood plasma levels ([4]; subjects administered oral nafamostat): Therapeutically-relevant blood plasma levels were not observed
